These results are taken from ChEMBL document CHEMBL5107961, “Design, synthesis, and biological evaluation of C6-difluoromethylenated epoxymorphinan Mu opioid receptor antagonists” (RSC Med Chem, 2022).

pIC50: −log10 of the molar value.

The test concerns the target Mu-type opioid receptor (Homo sapiens, UniProt P35372). Format: functional, cell-based, CHO-K1.

Sequence of Mu-type opioid receptor (P35372 whole entry): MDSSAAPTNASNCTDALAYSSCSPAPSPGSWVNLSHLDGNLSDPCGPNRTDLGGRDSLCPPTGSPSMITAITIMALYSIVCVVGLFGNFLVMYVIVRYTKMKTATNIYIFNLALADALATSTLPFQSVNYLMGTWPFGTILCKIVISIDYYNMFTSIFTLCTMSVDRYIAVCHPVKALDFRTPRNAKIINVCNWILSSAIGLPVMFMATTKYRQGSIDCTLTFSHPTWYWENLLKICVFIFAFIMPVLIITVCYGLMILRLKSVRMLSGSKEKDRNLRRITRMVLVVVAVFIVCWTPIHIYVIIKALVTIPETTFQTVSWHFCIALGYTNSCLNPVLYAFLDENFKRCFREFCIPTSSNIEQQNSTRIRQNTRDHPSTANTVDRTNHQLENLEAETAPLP
Description: Antagonist activity at human MOR expressed in CHO-K1 cells assessed as reduction in fentanyl induced cAMP production incubated for 30 mins by Lance ultra cAMP assay

As usually defined, the pIC50 is the negative decadic logarithm of the IC50, by convention in mol/L. `Oc1ccc2c3c1O[C@H]1C(=C(F)F)CC[C@@]4(O)[C@@H](C2)N(CC2CC2)CC[C@]314` gave a pIC50 of 8.29.
